According to patent US20110257208A1, “COMPOUNDS USEFUL AS FAAH MODULATORS AND USES THEREOF” (priority 2008, published 2011):

Each compound was assayed against T1, hFAAH (Homo sapiens, UniProt O00519) (assay: Fluorimetric assay with hFAAH microsomes (enzymatic, fluorescence based)). Conditions: compound at 1 uM, AA-AMC substrate.
T1 construct: expressed in transfected cells; host or cells: HEK293-TRex (Invitrogen) stably transfected with hFAAH in the pcDNA5-Tet-off vector, or T84 human colon epithelial cells (endogenous hFAAH); used as a microsomal preparation
T1 sequence (O00519 1-579): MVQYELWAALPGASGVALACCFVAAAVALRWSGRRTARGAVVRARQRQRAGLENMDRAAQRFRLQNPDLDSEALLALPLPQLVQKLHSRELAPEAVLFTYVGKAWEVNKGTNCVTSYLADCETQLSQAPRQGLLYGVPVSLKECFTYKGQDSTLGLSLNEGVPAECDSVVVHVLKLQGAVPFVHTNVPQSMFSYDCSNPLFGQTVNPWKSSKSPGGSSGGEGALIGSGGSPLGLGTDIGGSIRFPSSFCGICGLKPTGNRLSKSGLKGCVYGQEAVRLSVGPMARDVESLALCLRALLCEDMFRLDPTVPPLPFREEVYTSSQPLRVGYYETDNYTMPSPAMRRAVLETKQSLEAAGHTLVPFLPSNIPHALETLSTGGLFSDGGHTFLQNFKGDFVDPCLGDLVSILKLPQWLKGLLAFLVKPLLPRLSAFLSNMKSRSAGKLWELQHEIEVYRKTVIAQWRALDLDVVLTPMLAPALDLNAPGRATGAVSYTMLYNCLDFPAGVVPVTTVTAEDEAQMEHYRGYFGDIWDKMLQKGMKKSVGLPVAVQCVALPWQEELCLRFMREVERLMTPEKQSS
Assay type: biochemical
Outline: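 Microsomes from T84 cells (endogenous hFAAH) or doxycycline-induced HEK293-TRex cells stably expressing hFAAH, 10 μg per well, in 50 mM HEPES pH 7.4, 1 mM EDTA, 1.4 mg/mL BSA with 2 μM AA-AMC. Kinetic fluorescence read (ex 355/em 460 nm, 275 cycles); activity as % inhibition, 7 concentrations in duplicate.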

inhibition at 1 µM | SMILES
< 25% | Cc1cccnc1CN1Cc2ncnc(Nc3cnc4ccccc4c3)c2C1 [Compound 79, [6-(3-Methyl-pyridin-2-ylmethyl)-6,7-dihydro-5H-pyrrolo[3,4-d]pyrimidin-4-yl]-quinolin-3-yl-amine]
> 75% | COC(=O)c1ccc(S(=O)(=O)N2Cc3ncnc(Nc4cnc5ccccc5c4)c3C2)o1 [Compound 68, 5-[4-(Quinolin-3-ylamino)-5,7-dihydro-pyrrolo[3,4-d]pyrimidine-6-sulfonyl]-furan-2-carboxylic acid methyl ester]
< 25% | CCN1Cc2ncnc(Nc3cnc4ccccc4c3)c2C1 [Compound 3, (6-Ethyl-6,7-dihydro-5H-pyrrolo[3,4-d]pyrimidin-4-yl)-quinolin-3-yl-amine]
> 75% | c1cc2c(c(CN3Cc4ncnc(Nc5cnc6ccccc6c5)c4C3)c1)OCC2 [Compound 101, [6-(2,3-Dihydro-benzofuran-7-ylmethyl)-6,7-dihydro-5H-pyrrolo[3,4-d]pyrimidin-4-yl]-quinolin-3-yl-amine]
> 75% | COc1ccccc1CN1Cc2ncnc(Nc3cnc4ccccc4c3)c2C1 [Compound 83, [6-(2-Methoxy-benzyl)-6,7-dihydro-5H-pyrrolo[3,4-d]pyrimidin-4-yl]-quinolin-3-yl-amine]
> 75% | Cc1ccc(C)c(CN2Cc3ncnc(Nc4cnc5ccccc5c4)c3C2)c1 [Compound 89, [6-(2,5-Dimethyl-benzyl)-6,7-dihydro-5H-pyrrolo[3,4-d]pyrimidin-4-yl]-quinolin-3-yl-amine]
> 75% | FC(F)(F)c1cccc(CN2Cc3ncnc(Nc4cnc5ccccc5c4)c3C2)c1 [Compound 99, Quinolin-3-yl-[6-(3-trifluoromethyl-benzyl)-6,7-dihydro-5H-pyrrolo[3,4-d]pyrimidin-4-yl]-amine]
> 75% | CC(C1CCCCC1)N1Cc2ncnc(Nc3cnc4ccccc4c3)c2C1 (centres unmarked) [Compound 38, [6-(1-Cyclohexyl-ethyl)-6,7-dihydro-5H-pyrrolo[3,4-d]pyrimidin-4-yl]-quinolin-3-yl-amine]
> 25% | CC(C)C(C)N1Cc2ncnc(Nc3cnc4ccccc4c3)c2C1 (centres unmarked) [Compound 32, [6-(1,2-Dimethyl-propyl)-6,7-dihydro-5H-pyrrolo[3,4-d]pyrimidin-4-yl]-quinolin-3-yl-amine]
> 25% | Cc1ccc(CN2Cc3ncnc(Nc4cnc5ccccc5c4)c3C2)c(C)c1 [Compound 93, [6-(2,4-Dimethyl-benzyl)-6,7-dihydro-5H-pyrrolo[3,4-d]pyrimidin-4-yl]-quinolin-3-yl-amine]
> 75% | Fc1cccc(CN2Cc3ncnc(Nc4cnc5ccccc5c4)c3C2)c1F [Compound 107, [6-(2,3-Difluoro-benzyl)-6,7-dihydro-5H-pyrrolo[3,4-d]pyrimidin-4-yl]-quinolin-3-yl-amine]
< 25% | Cc1nc(C)c(CNC(=O)N2Cc3ncnc(Nc4cnc5ccccc5c4)c3C2)s1 [Compound 48, 4-(Quinolin-3-ylamino)-5,7-dihydro-pyrrolo[3,4-d]pyrimidine-6-carboxylic acid (2,4-dimethyl-thiazol-5-ylmethyl)-amide]
> 75% | c1ccc(CCN2Cc3ncnc(Nc4cnc5ccccc5c4)c3C2)cc1 [Compound 22, (6-Phenethyl-6,7-dihydro-5H-pyrrolo[3,4-d]pyrimidin-4-yl)-quinolin-3-yl-amine]
> 25% | CCCCN1Cc2ncnc(Nc3cnc4ccccc4c3)c2C1 [Compound 6, (6-Butyl-6,7-dihydro-5H-pyrrolo[3,4-d]pyrimidin-4-yl)-quinolin-3-yl-amine]
> 75% | c1ccc(CN2Cc3ncnc(Nc4cnc5ccccc5c4)c3C2)cc1 [Compound 1, (6-Benzyl-6,7-dihydro-5H-pyrrolo[3,4-d]pyrimidin-4-yl)-quinolin-3-yl-amine]
> 75% | COc1cccc(CN2Cc3ncnc(Nc4cnc5ccccc5c4)c3C2)c1 [Compound 106, [6-(3-Methoxy-benzyl)-6,7-dihydro-5H-pyrrolo[3,4-d]pyrimidin-4-yl]-quinolin-3-yl-amine]
> 75% | Clc1ccccc1CN1Cc2ncnc(Nc3cnc4ccccc4c3)c2C1 [Compound 84, [6-(2-Chloro-benzyl)-6,7-dihydro-5H-pyrrolo[3,4-d]pyrimidin-4-yl]-quinolin-3-yl-amine]
< 25% | Cc1nc(CN2Cc3ncnc(Nc4cnc5ccccc5c4)c3C2)cs1 [Compound 25, [6-(2-Methyl-thiazol-4-ylmethyl)-6,7-dihydro-5H-pyrrolo[3,4-d]pyrimidin-4-yl]-quinolin-3-yl-amine]

inhibition at 1 µM | SMILES
< 25% | O=C(CN1CCCC1)N1Cc2ncnc(Nc3cnc4ccccc4c3)c2C1 [Compound 54, 2-Pyrrolidin-1-yl-1-[4-(quinolin-3-ylamino)-5,7-dihydro-pyrrolo[3,4-d]pyrimidin-6-yl]-ethanone]
> 50% | CC(C)(C)OC(=O)N1Cc2ncnc(Nc3cnc4ccccc4c3)c2C1 [Compound 45, 4-(Quinolin-3-ylamino)-5,7-dihydro-pyrrolo[3,4-d]pyrimidine-6-carboxylic acid tert-butyl ester]
> 75% | FC(F)(F)Oc1cccc(CN2Cc3ncnc(Nc4cnc5ccccc5c4)c3C2)c1 [Compound 104, Quinolin-3-yl-[6-(3-trifluoromethoxy-benzyl)-6,7-dihydro-5H-pyrrolo[3,4-d]pyrimidin-4-yl]-amine]
> 75% | c1ccc(C2CC2)c(CN2Cc3ncnc(Nc4cnc5ccccc5c4)c3C2)c1 [Compound 112, [6-(2-Cyclopropyl-benzyl)-6,7-dihydro-5H-pyrrolo[3,4-d]pyrimidin-4-yl]-quinolin-3-yl-amine]
< 25% | CN1CCC(CN2Cc3ncnc(Nc4cnc5ccccc5c4)c3C2)CC1 [Compound 27, [6-(1-Methyl-piperidin-4-ylmethyl)-6,7-dihydro-5H-pyrrolo[3,4-d]pyrimidin-4-yl]-quinolin-3-yl-amine]
> 50% | CC(C1CCCC1)N1Cc2ncnc(Nc3cnc4ccccc4c3)c2C1 (centres unmarked) [Compound 37, [6-(1-Cyclopentyl-ethyl)-6,7-dihydro-5H-pyrrolo[3,4-d]pyrimidin-4-yl]-quinolin-3-yl-amine]
> 50% | FC(F)(F)CCN1Cc2ncnc(Nc3cnc4ccccc4c3)c2C1 [Compound 31, Quinolin-3-yl-[6-(3,3,3-trifluoro-propyl)-6,7-dihydro-5H-pyrrolo[3,4-d]pyrimidin-4-yl]-amine]
< 25% | CCCN1Cc2ncnc(Nc3cnc4ccccc4c3)c2C1 [Compound 4, (6-Propyl-6,7-dihydro-5H-pyrrolo[3,4-d]pyrimidin-4-yl)-quinolin-3-yl-amine]
> 75% | Cc1nc(C)c(CN2Cc3ncnc(Nc4cnc5ccccc5c4)c3C2)s1 [Compound 28, [6-(2,4-Dimethyl-thiazol-5-ylmethyl)-6,7-dihydro-5H-pyrrolo[3,4-d]pyrimidin-4-yl]-quinolin-3-yl-amine]
> 25% | CCCC(C)N1Cc2ncnc(Nc3cnc4ccccc4c3)c2C1 (centres unmarked) [Compound 42, [6-(1-Methyl-butyl)-6,7-dihydro-5H-pyrrolo[3,4-d]pyrimidin-4-yl]-quinolin-3-yl-amine]
> 25% | c1ccc2ncc(Nc3ncnc4c3CN(CC3CCOC3)C4)cc2c1 (centres unmarked) [Compound 13, Quinolin-3-yl-[6-(tetrahydro-furan-3-ylmethyl)-6,7-dihydro-5H-pyrrolo[3,4-d]pyrimidin-4-yl]-amine]
> 75% | c1ccc2ncc(Nc3ncnc4c3CN(CC3CCSCC3)C4)cc2c1 [Compound 18, Quinolin-3-yl-[6-(tetrahydro-thiopyran-4-ylmethyl)-6,7-dihydro-5H-pyrrolo[3,4-d]pyrimidin-4-yl]-amine]
> 25% | COc1ccccc1S(=O)(=O)N1Cc2ncnc(Nc3cnc4ccccc4c3)c2C1 [Compound 73, [6-(2-Methoxy-benzenesulfonyl)-6,7-dihydro-5H-pyrrolo[3,4-d]pyrimidin-4-yl]-quinolin-3-yl-amine]
> 75% | CSc1ccccc1CN1Cc2ncnc(Nc3cnc4ccccc4c3)c2C1 [Compound 102, [6-(2-Methylsulfanyl-benzyl)-6,7-dihydro-5H-pyrrolo[3,4-d]pyrimidin-4-yl]-quinolin-3-yl-amine]
> 75% | Cc1ccoc1CN1Cc2ncnc(Nc3cnc4ccccc4c3)c2C1 [Compound 86, [6-(3-Methyl-furan-2-ylmethyl)-6,7-dihydro-5H-pyrrolo[3,4-d]pyrimidin-4-yl]-quinolin-3-yl-amine]
< 25% | O=C(NC1CCCCC1)N1Cc2ncnc(Nc3cnc4ccccc4c3)c2C1 [Compound 47, 4-(Quinolin-3-ylamino)-5,7-dihydro-pyrrolo[3,4-d]pyrimidine-6-carboxylic acid cyclohexylamide]
> 75% | Cc1ncsc1CN1Cc2ncnc(Nc3cnc4ccccc4c3)c2C1 [Compound 66, [6-(4-Methyl-thiazol-5-ylmethyl)-6,7-dihydro-5H-pyrrolo[3,4-d]pyrimidin-4-yl]-quinolin-3-yl-amine]
